# Measured values reported in ChEMBL document CHEMBL4422630, “Identification of substituted 5-membered heterocyclic compounds as potential anti-leukemic agents” (Eur J Med Chem, 2019).
# Calls of active or inactive are those of the source. The rule behind the calls is not given here.
# Key:
# [1] = Permeability of compound at pH 7.4 by PAMPA; type: ADME; settings: read-out: Peff
# [2] = Permeability of compound at pH 7.4 assessed as drug retention by PAMPA; type: ADME
# UoC-B1 = test: Antiproliferative activity against human UOCB1 assessed as reduction in cell viability after 72 hrs by CellTiter-Glo assay; type: functional, cell-based; settings: UoC-B1, 72 h
# MV4-11 = test: Antiproliferative activity against human MV411 assessed as reduction in cell viability after 72 hrs by CellTiter-Glo assay; type: functional, cell-based; settings: MV4-11, 72 h
# NALM-6 = test: Antiproliferative activity against human NALM6 assessed as reduction in cell viability after 72 hrs by CellTiter-Glo assay; type: functional, cell-based; settings: NALM-6, 72 h
# SUP-B15 [3] = test: Antiproliferative activity against human SUP-B15 assessed as reduction in cell viability after 72 hrs by CellTiter-Glo assay; type: functional, cell-based; settings: SUP-B15, 72 h
# [4] = Therapeutic index, ratio of EC50 for human BJ cells to EC50 for mouse B-ALL cells expressing wild type BCR-ABL; type: toxicity; settings: human BJ cells versus mouse B-ALL cells expressing wild type BCR-ABL; read-out: Ratio EC50
# BJ = test: Antiproliferative activity against human BJ assessed as cell viability after 72 hrs by CellTiter-Glo assay; type: functional, cell-based
# B-ALL [5] = test: Antiproliferative activity against mouse B-ALL cells expressing wild type BCR-ABL assessed as reduction in cell viability after 72 hrs by CellTiter-Glo assay; type: functional, cell-based
# K562 = test: Antiproliferative activity against human K562 assessed as reduction in cell viability after 72 hrs by CellTiter-Glo assay; type: functional, cell-based; settings: K562, 72 h
# KOPN-8 [6] = test: Antiproliferative activity against human KOPN8 assessed as reduction in cell viability after 72 hrs by CellTiter-Glo assay; type: functional, cell-based; settings: KOPN-8, 72 h
# B-ALL [7] = test: Antiproliferative activity against mouse B-ALL BCR-ABL double knockout cells assessed as reduction in cell viability after 72 hrs by CellTiter-Glo assay; type: functional, cell-based
# [8] = Apparent permeability of compound form apical to basolateral side in human Caco2 cells; type: ADME, cell-based; settings: Caco-2
# [9] = Apparent permeability of compound form basolateral to apical side in human Caco2 cells; type: ADME, cell-based; settings: Caco-2
# [10] = Efflux ratio of apparent permeability across basolateral to apical side over apical to basolateral side in human Caco2 cells; type: ADME, cell-based; settings: Caco-2
# [11] = Half life in simulated gastric fluid; type: ADME
# [12] = Half life in mouse plasma; type: ADME, cell-free
# [13] = Half life in human plasma; type: ADME, cell-free
# KOPN-8 [14] = test: Induction of apoptosis in human KOPN8 cells assessed as decrease in cell viability at 5 uM after 24 hrs by Annexin V/propidium iodide staining-based flow cytometric analysis; type: functional
# SUP-B15 [15] = test: Induction of apoptosis in human SUP-B15 cells assessed as decrease in cell viability at 5 uM after 24 hrs by Annexin V/propidium iodide staining-based flow cytometric analysis; type: functional
# [16] = Half life in human microsomes; type: ADME, Microsome
# SUP-B15 [17] = test: Induction of apoptosis in human SUP-B15 cells assessed as late apoptotic cells level after 24 hrs by Annexin V and propidium iodide staining based flow cytometry (reference value: 83%); type: functional
# MDA-MB-231 [18] = test: Cytotoxicity against human MDA-MB-231 cells up to 30 uM after 24 hrs by propidium iodide staining-based fluorescence assay; type: functional, cell-based
# KOPN-8 [19] = test: Cell cycle arrest in human KOPN8 cells assessed as reduction in accumulation of cells at G1/G0 phase at 5 uM after 24 hrs by propidium iodide staining-based flow cytometric analysis; type: functional
# SUP-B15 [20] = test: Induction of apoptosis in human SUP-B15 cells assessed as increase in caspase 3/7 activity after 24 hrs by caspase-Glo 3/7 reagent based luminescence assay; type: functional, cell-based
# SUM149PT = test: Cytotoxicity against human SUM149 cells at 1 uM after 24 hrs by propidium iodide staining-based fluorescence assay relative to control; type: functional, cell-based
# KOPN-8 [21] = test: Cell cycle arrest in human KOPN8 cells assessed as increase in accumulation of cells at S phase at 5 uM after 24 hrs by propidium iodide staining-based flow cytometric analysis; type: functional
# [22] = Protein binding in human plasma; type: ADME, cell-free; settings: read-out: PPB (converted)
# SUP-B15 [23] = test: Induction of apoptosis in human SUP-B15 cells assessed as decrease in cell viability at […] after 24 hrs by ApoTox-Glo triplex assay; type: functional, cell-based
# B-ALL [24] = test: Induction of apoptosis in mouse B-ALL BCR-ABL double knockout cells assessed as increase in caspase 3/7 activity after 24 hrs by caspase-Glo 3/7 reagent based luminescence assay; type: functional, cell-based
# SUP-B15 [25] = test: Induction of apoptosis in human SUP-B15 cells assessed as late apoptotic cells level after 24 hrs by Annexin V and propidium iodide staining based flow cytometry (reference value: 13.5%); type: functional
# [26] = Protein binding in mouse plasma; type: ADME, cell-free; settings: read-out: PPB (converted)
# SUP-B15 [27] = test: Cytotoxicity in human SUP-B15 cells assessed as decrease in cell viability after 24 hrs by bis-AAF-RF110 dye based assay; type: functional
# [28] = Intrinsic clearance in human microsomes; type: ADME, Microsome
# [29] = Intrinsic clearance in mouse microsomes; type: ADME, Microsome
# [30] = Half life in mouse microsomes; type: ADME, Microsome
# KOPN-8 [31] = test: Induction of apoptosis in human KOPN8 cells assessed as late apoptotic cells level after 24 hrs by Annexin V and propidium iodide staining based flow cytometry (reference value: 2%); type: functional
# MDA-MB-231 [32] = test: Cytotoxicity against human MDA-MB-231 cells at 30 uM after 24 hrs by propidium iodide staining-based fluorescence assay; type: functional, cell-based
# KOPN-8 [33] = test: Induction of apoptosis in human KOPN8 cells assessed as late apoptotic cells level after 24 hrs by Annexin V and propidium iodide staining based flow cytometry (reference value: 96.4%); type: functional
compound,measurement,setting,value
CCCSc1ccc2nc(NC(=O)OC)[nH]c2c1 [ALBENDAZOLE],Papp,[1],284 ×10⁻⁶ cm/s
same,permeability,[2],44.1%
CCN(CC)c1ccc(-n2cnnc2-c2cccc(O)c2)cc1,EC50,UoC-B1,1.78 µM
same,EC50,MV4-11,0.85 µM
same,EC50,NALM-6,1.06 µM
same,EC50,SUP-B15 [3],> 49.1 µM
same,selectivity ratio,[4],> 24
same,EC50,BJ,> 49.2 µM
same,EC50,B-ALL [5],2.03 µM
same,EC50,K562,1.07 µM
same,EC50,KOPN-8 [6],> 49.1 µM
same,EC50,B-ALL [7],> 49.1 µM
NC(=O)N1c2ccccc2C=Cc2ccccc21 [CARBAMAZEPINE],Papp A→B,[8],52.4 ×10⁻⁶ cm/s
same,Papp,[1],266 ×10⁻⁶ cm/s
same,Papp B→A,[9],41.8 ×10⁻⁶ cm/s
same,permeability,[2],21.9%
same,efflux ratio,[10],0.8
CNC(=C[N+](=O)[O-])NCCSCc1ccc(CN(C)C)o1 [RANITIDINE],permeability,[2],0%
CC[C@]1(O)C[C@@H]2CN(CCc3c([nH]c4ccccc34)[C@@](C(=O)OC)(c3cc4c(cc3OC)N(C)[C@H]3[C@@](O)(C(=O)OC)[C@H](OC(C)=O)[C@]5(CC)C=CCN6CC[C@]43[C@@H]65)C2)C1 [VINBLASTINE],Papp A→B,[8],0.621 ×10⁻⁶ cm/s
same,Papp B→A,[9],13.1 ×10⁻⁶ cm/s
same,efflux ratio,[10],21.1
c1ccc2[nH]c(-c3ccc(-c4nc5ccccc5[nH]4)nc3)nc2c1,EC50,UoC-B1,> 43.3 µM
same,EC50,MV4-11,13.7 µM
same,EC50,NALM-6,2.47 µM
same,EC50,SUP-B15 [3],1.81 µM
same,selectivity ratio,[4],> 5
same,EC50,BJ,> 43.3 µM
same,EC50,B-ALL [5],7.89 µM
same,EC50,K562,7.33 µM
same,EC50,KOPN-8 [6],1.78 µM
same,EC50,B-ALL [7],34.2 µM
COc1ccc(O)c(-c2cc(-c3ccc(Cl)cc3)[nH]n2)c1,EC50,UoC-B1,10.6 µM
same,EC50,MV4-11,0.65 µM
same,EC50,NALM-6,> 21.6 µM
same,EC50,SUP-B15 [3],5.23 µM
same,selectivity ratio,[4],> 5
same,EC50,BJ,> 43.3 µM
same,EC50,B-ALL [5],8.04 µM
same,EC50,KOPN-8 [6],1.4 µM
same,EC50,B-ALL [7],27.8 µM
O=C(c1cc(-c2csc(-c3ccc(O)cc3)n2)c[nH]1)N1CCCC1,EC50,UoC-B1,> 43.3 µM
same,EC50,NALM-6,> 43.3 µM
same,EC50,SUP-B15 [3],> 43.3 µM
same,selectivity ratio,[4],> 11
same,EC50,BJ,> 43.3 µM
same,EC50,B-ALL [5],3.98 µM
same,EC50,KOPN-8 [6],> 43.3 µM
same,EC50,B-ALL [7],> 43.3 µM
COc1ccc(O)c(-c2cc(-c3cc(Cl)ccc3O)[nH]n2)c1,EC50,UoC-B1,13.6 µM
same,EC50,NALM-6,0.005 µM
same,EC50,SUP-B15 [3],> 43.3 µM
same,selectivity ratio,[4],5
same,EC50,BJ,25.1 µM
same,EC50,B-ALL [5],4.94 µM
same,EC50,KOPN-8 [6],15.8 µM
same,EC50,B-ALL [7],11.2 µM
O=C(O)CCCc1ccc(N(CCCl)CCCl)cc1 [CHLORAMBUCIL],half-life,[11],15.3 h
COc1cc(-c2cc3ccccc3[nH]2)[nH]c1/C=C1\N=C(C)C=C1C,EC50,UoC-B1,1.49 to 1.5 µM
same,EC50,NALM-6,1.07 µM
same,EC50,SUP-B15 [3],25.9 µM
same,selectivity ratio,[4],7
same,EC50,BJ,8.71 µM
same,EC50,B-ALL [5],1.24 µM
same,EC50,KOPN-8 [6],14.7 µM
same,EC50,B-ALL [7],12.5 µM
COc1ccc(O)c(C(=O)NCCc2ccc(-c3cnc(C)s3)cc2)c1,EC50,UoC-B1,24.7 µM
same,EC50,MV4-11,> 10 µM
same,EC50,NALM-6,1.01 µM
same,EC50,SUP-B15 [3],> 43.3 µM
same,EC50,BJ,8.25 µM
same,EC50,B-ALL [5],9.49 µM
same,EC50,KOPN-8 [6],36.3 µM
same,EC50,B-ALL [7],22.7 µM
COc1ccc(-c2[nH]nc(C)c2-c2ccc(OC)c(O)c2)c(O)c1,EC50,UoC-B1,6.1 µM
same,EC50,NALM-6,> 21.6 µM
same,EC50,SUP-B15 [3],> 43.3 µM
same,selectivity ratio,[4],> 5
same,EC50,BJ,> 43.3 µM
same,EC50,B-ALL [5],8.53 µM
same,EC50,KOPN-8 [6],34.6 µM
same,EC50,B-ALL [7],28.9 µM
CC1CC(OC(=O)C(O)c2ccccc2)CC(C)(C)N1C (stereo not drawn) [EUCATROPINE],half-life,[12],2.11 h
same,half-life,[13],0.42 h
O=C(Cc1ccccc1)Nc1ccc(-c2nc3cc(NC(=O)Cc4ccccc4)ccc3[nH]2)cc1,Papp A→B,[8],0.206 ×10⁻⁶ cm/s
same,Activity,KOPN-8 [14],Active
same,Activity,SUP-B15 [15],Active
same,half-life,[11],> 48 h
same,half-life,[16],3.56 h
same,Activity,SUP-B15 [17],24.2%
same,EC50,UoC-B1,> 43.3 µM
same,Activity,MDA-MB-231 [18],inactive
same,Papp,[1],204 ×10⁻⁶ cm/s
same,Activity,KOPN-8 [19],Active
same,Papp B→A,[9],4.13 ×10⁻⁶ cm/s
same,half-life,[12],> 48 h
same,half-life,[13],> 48 h
same,permeability,[2],74.6%
same,Activity,SUP-B15 [20],Active
same,Activity,SUM149PT,Active
same,EC50,MV4-11,0.716 µM
same,EC50,NALM-6,4.24 µM
same,EC50,SUP-B15 [3],0.27 µM
same,Activity,KOPN-8 [21],Active
same,fraction unbound,[22],0.003
same,selectivity ratio,[4],13
same,efflux ratio,[10],20.1
same,EC50,BJ,8.35 µM
same,EC50,B-ALL [5],0.635 µM
same,EC50,K562,> 10 µM
same,EC50,KOPN-8 [6],0.18 µM
same,Activity,SUP-B15 [23],Active
same,Activity,B-ALL [24],inactive
same,EC50,B-ALL [7],0.784 µM
same,Activity,SUP-B15 [25],18.6%
same,fraction unbound,[26],0.002
same,Activity,SUP-B15 [27],Active
same,CLint scaled,[28],5.85 mL/min/kg
same,CLint scaled,[29],10.5 mL/min/kg
same,half-life,[30],5.44 h
same,Activity,KOPN-8 [31],18.5%
same,Activity,MDA-MB-231 [32],Active
same,Activity,KOPN-8 [33],80.1%
NC(=O)c1sccc1Nc1[nH]c(Nc2cccc(OC(F)(F)F)c2)nc2nncc1-2,EC50,UoC-B1,12.9 µM
same,EC50,NALM-6,0.005 µM
same,EC50,SUP-B15 [3],> 43.3 µM
same,selectivity ratio,[4],5
same,EC50,BJ,17 µM
same,EC50,B-ALL [5],3.14 µM
same,EC50,KOPN-8 [6],13.1 µM
same,EC50,B-ALL [7],14.6 µM
CS(=O)(=O)c1ccc(-c2cccc3c2OC(CNC(=O)c2ccccc2F)C3)cc1 (stereo not drawn),EC50,UoC-B1,> 43.3 µM
same,EC50,NALM-6,1.75 µM
same,EC50,SUP-B15 [3],> 43.3 µM
same,selectivity ratio,[4],> 5
same,EC50,BJ,> 43.3 µM
same,EC50,B-ALL [5],8.88 µM
same,EC50,KOPN-8 [6],> 43.3 µM
same,EC50,B-ALL [7],36.4 µM
